This is an account of results in PubChem BioAssay (NCI).

Common to all, as to assay: NCI anticancer screen, dose series, 48 h
Test [1] concerns MALME-3M melanoma.
Test [2] concerns COLO 205 colon.
The subject of test [3] is SR leukemia.
The test system of test [4] is HOP-62 NSCLC.
In test [5] the test system is RXF 393 renal.
The subject of test [6] is IGROV1 ovarian.
The test system of test [7] is NCI/ADR-RES ovarian.
For test [8], the system named is SNB-75 CNS.
For test [9], the system named is HOP-92 NSCLC.
The subject of test [10] is MDA-MB-435.

Structures are written as SMILES. Several values for one entry are separate records, joined by “and”; a condition that tells them apart may be missing. Equal values may be shown once.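 Following 48 hours of exposure in 96-well plates, responses at five concentrations were used to interpolate endpoints linearly. At the GI50, growth is halved. The concentration for full growth arrest is given as TGI.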

`C[C@]12CC[C@@H]3c4cc(I)c(O)cc4CC[C@H]3[C@@H]1CC[C@@H]2O`: the TGI in [1] stood at 28.3 µM; in [2], 36.2 µM; in test [3], 13.7 µM; in [4], 17.3 µM; in [5] it was 20.1 µM; in test [6] it was 20.5 µM. Besides, the TGI was above 78.2 µM in [7], 12.4 µM in test [8], 26.3 µM in test [9] and 8.02 µM in test [10]. Also, the GI50 is 4.22 µM in [4] and 2.11 µM in [10].
As to `CC(C)OC(=O)OCSc1ccccc1N=Cc1cccc([N+](=O)[O-])c1`, the TGI in [1], in test [2], in test [3], in [4], in test [5] and in test [6] was above 10 µM throughout. Also, the TGI in test [7], in test [8], in test [9] and in test [10] was above 10 µM throughout.
Consider `[O-]/[N+](=C\c1ccccc1OC(=S)S)c1ccc(Cl)cc1`, for which the TGI is above 100 µM in test [1]; 26.7 µM in test [2]; above 100 µM in test [3]; above 100 µM in test [4]; above 100 µM in [5]; 30.7 µM in [6]. Moreover, the TGI in test [7] is above 100 µM; in test [8] it was above 100 µM; in test [9], 18.1 µM; in test [10] it was 47.3 µM.
On to `COc1cc(/C=C/C=C2\CC/C(=C\C=C\c3ccc(O)c(OC)c3)C2=O)ccc1O`, for which the TGI in test [1] is above 100 µM; in test [2] it was above 100 µM; in test [3], 17.9 µM; in [4], above 100 µM; in test [5], 77.7 µM; in [6], above 100 µM. Also, the TGI in [7], in [8], in [9] and in test [10] was above 100 µM in each case.
As to `Oc1[nH]c2ccccc2c1N=NC(=S)Nc1ccc(Cl)cc1`, the TGI in [1] was 54.7 µM; in [2], above 100 µM; in [3] it was above 100 µM; in [4], above 100 µM; in test [5], above 100 µM; in test [6], above 100 µM. Also, the TGI in test [7] was 38.8 µM; in [8], above 100 µM; in test [9], above 100 µM; in test [10], above 100 µM.
With `S=c1cc(-c2ccc3c(c2)OCO3)s[nH]1`, the TGI in test [1], in test [2], in test [3], in test [4], in [5] and in [6] was above 100 µM each time. In addition, the TGI in test [7], in test [8], in test [9] and in test [10] was above 100 µM each time.
As for `C[n+]1c(-c2ccc(/C=C/C=N\NC(=O)c3ccc(C(=O)N/N=C\C=C\c4ccc(-c5cn6ccccc6[n+]5C)cc4)cc3)cc2)cn2ccccc21`, the TGI was above 100 µM in test [1]; above 100 µM in test [2]; 42.3 µM in [3]; above 100 µM in [4]; above 100 µM in test [5]; above 100 µM in test [6]. Further, the TGI in test [7], in [8], in test [9] and in [10] was above 100 µM each time.
For the compound `COC(=O)c1cc(C#N)[nH]c1-c1cc(Br)cs1`, the TGI in test [1] was 34.9 µM; in [2], 35.6 µM; in test [3], above 66.3 µM; in [4], 29.9 µM; in [5], 23 µM; in test [6], 35.3 µM. Also, the TGI in test [7] stood at 39.3 µM; in [8], 22.6 µM; in test [9], 19.1 µM; in test [10] it was 31.5 µM.
`COc1cc2c(c(O)c1OC)C(=O)C(Cc1ccc(O)cc1)CO2` (configuration not stated): the TGI is above 100 µM in test [1]; above 100 µM in [2]; above 100 µM in test [3]; above 100 µM in [4]; 54 µM in test [5]; above 100 µM in test [6]. Also, the TGI in test [7] is 39.2 µM; in test [8] it was 81.4 µM; in test [9], above 100 µM; in test [10] it was 7.24 µM.
As to `Cc1ccc(C2=CC(=O)/C(=C\C(=O)c3ccc(Cl)cc3)O2)cc1`, the TGI in [1] was 32.7 µM; in [2], 26.1 µM; in test [3], 6.1 µM; in [4], above 100 µM; in [5] it was 18.6 µM; in [6], 34.2 µM. Besides, the TGI was determined as 49.6 µM in test [7], 74.5 µM in test [8], 33.3 µM in [9] and 32.2 µM in test [10].
Consider `N#Cc1nc(C2CCC2)oc1N`, for which the TGI in test [1], in test [2], in [3], in test [4], in test [5] and in test [6] was above 100 µM in each case. For the same compound, the TGI in [7], in [8], in test [9] and in [10] was above 100 µM in each case.
As to `O=C1c2ccccc2NC(=S)[C@@H]2CCCN12`, the TGI in test [1], in [2], in test [3], in test [4], in [5] and in [6] was above 100 µM in each case. Further, the TGI in test [7], in [8], in [9] and in test [10] was above 100 µM each time.
Consider `COc1c(O)c2c(=O)cc(OC)c3c4c(OC)cc(=O)c5c(O)c(OC)c6c(c(c1C(C(C)O)C6C(C)O)c23)c54` (configuration not stated), for which the TGI in test [1] is 2.75 µM; in [2] it was 4.22 µM; in test [3] it was 5.37 µM; in [4], 2.02 µM; in test [5], 1.76 µM; in test [6], 2.3 µM. Further, the TGI in [7] was found to be 3.66 µM; in test [8], 2.89 µM; in test [9], 1.49 µM; in [10], 5.44 µM.
Turning to `COc1ccc(NC(=S)NC(=O)c2ccc3c(c2)Sc2ccccc2O3)c([N+](=O)[O-])c1`, the TGI in test [1] is 35.7 µM; in [2], above 100 µM; in test [3], above 100 µM; in test [4], above 100 µM; in test [5] it was 75.6 µM; in test [6], 59.1 µM. Moreover, the TGI in test [7] is above 100 µM; in [8] it was 23.7 µM; in [9], 44.9 µM; in test [10], above 100 µM.
`CN(C)CC1CCC(CN(C)C)C1=O` (configuration not stated): the TGI was 3.67 µM in test [1]; 1.41 µM in test [2]; above 100 µM in [3]; above 68 µM in test [4]; 9.68 µM in test [5]; 15.4 µM in [6]. Further, the TGI is 63.8 µM in test [7], 37.2 µM in [8], 4.07 µM in test [9] and above 100 µM in test [10]. For the same compound, in [9], the GI50 is 1.93 µM.
In the case of `COc1cc(NC(C)=O)ccc1C(=O)NN1C(=O)/C(=C/c2ccco2)N=C1c1ccccc1`, the TGI in [1], in [2], in test [3], in test [4], in test [5] and in [6] was above 50 µM throughout. In addition, the TGI in [7], in [8], in test [9] and in test [10] was above 50 µM each time.
In the case of `COc1ccc(CC2COc3cc(O)cc(O)c3C2=O)cc1O` (configuration not stated), the TGI in test [1] is above 100 µM; in test [2], 43.8 µM; in test [3], above 100 µM; in [4], above 100 µM; in test [5], above 100 µM; in test [6], above 100 µM. For the same compound, the TGI in test [7] was 8.78 µM; in test [8], 6.98 µM; in test [9] it was above 100 µM; in test [10], 3.68 µM.
With `COc1cc2c(cc1OC)-c1cc3ccccc3c(=O)n1CC2`, the TGI in [1] was 61.5 µM; in test [2], above 100 µM; in test [3], 96.8 µM; in test [4], 37.1 µM; in test [5], 21.6 µM; in test [6], 72.8 µM. Also, the TGI in test [7] was above 100 µM; in [8], 92 µM; in test [9], 63 µM; in test [10], above 100 µM.
On to `CCOC(=O)/C=C(\C(=O)OCC)n1ccc(=O)n(Cc2cn(COCCOC(C)=O)nn2)c1=O`, for which the TGI in test [1] is 30.6 µM; in test [2] it was 24.2 µM; in test [3], 52.9 µM; in test [4], above 100 µM; in [5] it was 38.4 µM; in test [6], 44.3 µM. In addition, the TGI in test [7] was 52.8 µM; in test [8] it was above 69.4 µM; in test [9] it was 35.3 µM; in test [10], 37 µM.
On to `O=c1[nH]c(Nc2cccc(CO)c2)nc2nc[nH]c12`, for which the TGI in [1], in [2], in test [3], in test [4], in test [5] and in test [6] was above 100 µM in each case. Besides, the TGI in test [7], in test [8], in test [9] and in [10] was above 100 µM each time.
`N#Cc1c(-c2ccccc2)cc(-c2ccc(Cl)cc2)[nH]c1=S`: the TGI in [1] is above 100 µM; in test [2], 71.1 µM; in test [3], above 100 µM; in test [4] it was above 100 µM; in test [5] it was above 100 µM; in test [6], 89.8 µM. Also, the TGI in test [7] was above 100 µM; in [8] it was above 100 µM; in [9] it was above 100 µM; in test [10], 43.1 µM.
Take `O=C(c1ccncc1)C1C(=O)c2ccccc2C1C1(O)c2ccccc2CC1C(O)c1ccncc1` (configuration not stated): the TGI in [1], in test [2], in test [3], in test [4], in [5] and in test [6] was above 100 µM each time. In addition, the TGI is above 100 µM in [7], above 100 µM in test [8], above 100 µM in test [9] and 47.9 µM in test [10].
In the case of `COc1cc2ccc1OCc1cccc(n1)COc1ccc(cc1OC)C=Nc1ccc(cc1)N=C2`, the TGI in test [1], in [2], in test [3], in [4], in test [5] and in test [6] was above 100 µM each time. Besides, the TGI in test [7], in [8], in [9] and in [10] was above 100 µM in each case.
`COc1ccc(-c2cc(-c3ccccc3)[nH]c(=S)c2C#N)cc1`: the TGI was above 100 µM in test [1]; above 100 µM in [3]; 24.2 µM in [4]; above 100 µM in [5]; above 100 µM in [6]; above 100 µM in [7]. Further, the results for the TGI in test [8], in test [9] and in test [10] were 88.1 µM, 98.3 µM and 42.8 µM, respectively.
`C=C(CN(C)C)C(=O)c1ccccc1[N+](=O)[O-]`: the GI50 in test [1] is 4.74 µM; in test [3], 1.65 µM; in test [4], 17.7 µM; in test [5] it was 1.99 µM; in test [7], 5.61 µM; in test [8], 15.8 µM. For the same compound, the GI50 in [9] was 2.11 µM; in test [10] it was 3.86 µM. In addition, the TGI in [1] is 20.2 µM and 21.1 µM; in test [2] it was 21.2 µM; in test [3] it was > 33.3 µM and 5.74 µM; in test [4] it was > 100 µM and 36.6 µM; in test [5], 30.2 µM and 4.32 µM; in test [6], 52.7 µM. Besides, the TGI in test [7] is 48.9 µM; in [8], 66.3 µM and 44.4 µM; in test [9], 18.5 µM and 5.11 µM; in test [10] it was 29.7 µM and 15.9 µM.
Take `CC(=O)c1cnc2oc3ccc(O)cc3c2c1-c1ccccc1`: the TGI is 81.2 µM in test [1]; above 100 µM in test [2]; above 100 µM in [3]; above 100 µM in [5]; 45 µM in test [6]; 75 µM in [7]. Also, the results for the TGI in test [8], in test [9] and in test [10] were 22 µM, above 100 µM and above 100 µM, respectively. Besides, the GI50 in [6] was 5.04 µM; in test [7] it was 19.6 µM; in test [8] it was 2.57 µM.
